Active and inactive are the calls of the source. No cut-off for these calls is given here.
Experiments:
[1] = target: T1, Trace amine-associated receptor 1 (Homo sapiens) (UniProt Q96RJ0); assay: Agonist activity at human TAAR1 expressed in HEK293 cells assessed as cAMP accumulation at 10 uM after 20 mins by BRET assay relative to beta-PEA; type: functional, cell-based
T1 sequence (whole entry): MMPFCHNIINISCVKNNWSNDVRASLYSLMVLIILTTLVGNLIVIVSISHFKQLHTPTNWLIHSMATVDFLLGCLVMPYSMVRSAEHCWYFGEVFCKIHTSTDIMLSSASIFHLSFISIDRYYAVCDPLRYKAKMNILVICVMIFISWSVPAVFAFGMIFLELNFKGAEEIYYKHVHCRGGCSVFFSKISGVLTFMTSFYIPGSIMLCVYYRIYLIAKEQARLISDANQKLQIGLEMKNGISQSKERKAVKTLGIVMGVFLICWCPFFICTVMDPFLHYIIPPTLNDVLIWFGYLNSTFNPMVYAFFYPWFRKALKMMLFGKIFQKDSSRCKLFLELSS

[2] = target: Trace amine-associated receptor 1 (Mus musculus) (UniProt Q923Y8); assay: Agonist activity at mouse TAAR1 expressed in HEK293 cells assessed as cAMP accumulation at 10 uM after 20 mins by BRET assay relative to beta-PEA; type: functional, cell-based
[3] = Selectivity ratio of EC50 for human TAAR1 expressed in HEK293 cells to EC50 for mouse TAAR1 expressed in HEK293 cells; type: cell-based
[4] = target: T2, Trace amine-associated receptor 5 (Mus musculus, UniProt Q5QD14); assay: Agonist activity at mouse TAAR5 expressed in HEK293 cells assessed as cAMP accumulation after 20 mins by BRET assay; type: functional, cell-based
T2 sequence (Q5QD14 whole entry): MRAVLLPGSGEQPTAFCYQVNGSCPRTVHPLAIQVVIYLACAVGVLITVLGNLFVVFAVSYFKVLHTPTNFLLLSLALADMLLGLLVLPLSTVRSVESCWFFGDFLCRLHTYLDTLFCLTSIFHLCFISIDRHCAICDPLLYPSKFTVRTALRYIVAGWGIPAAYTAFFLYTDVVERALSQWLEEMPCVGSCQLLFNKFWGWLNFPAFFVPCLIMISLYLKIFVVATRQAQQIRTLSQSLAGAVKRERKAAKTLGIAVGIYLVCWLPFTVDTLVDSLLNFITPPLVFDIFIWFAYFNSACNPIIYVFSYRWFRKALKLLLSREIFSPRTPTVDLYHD

[5] = target: T3, Trace amine-associated receptor 1 (Homo sapiens, UniProt Q96RJ0); assay: Agonist activity at human TAAR1 expressed in HEK293 cells assessed as cAMP accumulation after 20 mins by BRET assay; type: functional, cell-based
T3 sequence (Q96RJ0 whole entry): T1 sequence (whole entry)

[6] = target: Trace amine-associated receptor 1 (Mus musculus, UniProt Q923Y8); assay: Agonist activity at mouse TAAR1 expressed in HEK293 cells assessed as cAMP accumulation after 20 mins by BRET assay; type: functional, cell-based
[7] = target: T3, Trace amine-associated receptor 1; assay: […] of full length recombinant human N-terminal HA-tagged/C-terminal FLAG-tagged TAAR1 expressed in CHOK1 cells assessed as increase in cAMP accumulation by AlphaScreen assay; type: functional, cell-based

Chain of Trace amine-associated receptor 1 (Mus musculus, UniProt Q923Y8) (Q923Y8 whole entry): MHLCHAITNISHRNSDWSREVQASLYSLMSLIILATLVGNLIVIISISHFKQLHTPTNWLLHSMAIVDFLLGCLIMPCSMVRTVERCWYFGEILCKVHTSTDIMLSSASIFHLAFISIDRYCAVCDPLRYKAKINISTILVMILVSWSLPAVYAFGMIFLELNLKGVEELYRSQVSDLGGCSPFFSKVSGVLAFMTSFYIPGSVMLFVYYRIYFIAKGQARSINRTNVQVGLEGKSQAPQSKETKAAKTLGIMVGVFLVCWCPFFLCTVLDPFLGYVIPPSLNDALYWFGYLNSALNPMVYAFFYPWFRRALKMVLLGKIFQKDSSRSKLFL
Chain of Trace amine-associated receptor 1 (Mus musculus) (Q923Y8 whole entry): as above

Structure (SMILES) | Emax [1] [%] | Emax [2] [%] | Ratio EC50 [3] | Activity [1] | Activity [2] | EC50 [4] [µM] | EC50 [5] [µM] | EC50 [6] [µM] | EC50 [7] [µM]
CC(C)NC(=N)NC(=N)Nc1ccc(Cl)cc1 | > 85 | > 85 | > 1.85 | – | – | – | – | – | –
NC1=NC2(CCCCC2)N(c2ccc(Cl)cc2)C(N)=N1 | – | – | – | inactive | inactive | > 10 | – | – | –
NC(N)=N/C(N)=N/c1cccc(F)c1 | – | – | – | inactive | inactive | > 10 | – | – | –
N=C(N)NC(=N)N1CCOCC1 | – | – | – | inactive | inactive | – | – | – | –
N=C(N)NC(=N)Nc1ccc(Cl)cc1 [4-CHLOROPHENYLBIGUANIDE] | > 85 | > 85 | > 4.76 | – | – | > 10 | > 10 | 2.1 | –
NC(N)=N/C(N)=N/Cc1cccc(Br)c1 | > 85 | > 85 | 2.72 | – | – | > 10 | 4.9 | 1.8 | –
NCCc1ccc(Oc2ccc(O)cc2)c(I)c1 | – | – | – | – | – | – | – | – | 1.69
Cc1ccc(NC(=N)N=C(N)N)cc1 | > 85 | > 85 | > 5.88 | – | – | > 10 | > 10 | 1.7 | –
NC(N)=N/C(N)=N/Cc1ccc(Cl)c(Cl)c1 | > 85 | > 85 | 33.3 | – | – | > 10 | 1.2 | 0.036 | –
N=C(N)NC(=N)Nc1ccccc1 [PHENYL BIGUANIDE] | – | – | – | inactive | inactive | > 10 | – | – | –
NC(N)=N/C(N)=N/c1ccc([N+](=O)[O-])cc1 | – | – | – | inactive | inactive | > 10 | – | – | –
NC(N)=N/C(N)=N/Cc1cccc(Cl)c1 | > 85 | > 85 | 72.2 | – | – | > 10 | 7 | 0.097 | –
COc1ccc(C/N=C(\N)N=C(N)N)cc1OC | – | – | – | inactive | inactive | > 10 | – | – | –
N=C(N)NC(=N)Nc1cccc(Cl)c1 | – | – | – | inactive | inactive | > 10 | – | – | –
COc1cc(Cc2cnc(N)nc2N)cc(OC)c1OC [TRIMETHOPRIM] | – | – | – | inactive | inactive | > 10 | – | – | –
N=C(N)NC(=N)Nc1ccccc1Cl | > 85 | > 85 | 2.44 | – | – | > 10 | 1 | 0.41 | –
NC(N)=N/C(N)=N/Cc1ccccc1Cl | > 85 | > 85 | 7.31 | – | – | > 10 | 3 | 0.41 | –
COc1ccc(/N=C(\N)N=C(N)N)cc1 | – | – | – | inactive | inactive | > 10 | – | – | –
COc1ccc(CNC(=N)NC(=N)N)cc1 | – | – | – | inactive | inactive | > 10 | – | – | –
N=C(N)/N=C(\N)N1CCOCC1 [MOROXYDINE] | – | – | – | – | – | > 10 | – | – | –
NC(N)=N/C(N)=N/C1CCCC1 | – | – | – | inactive | inactive | > 10 | – | – | –
CC1(C)N=C(N)N=C(N)N1c1ccc(Cl)cc1 [CYCLOGUANIL] | – | – | – | inactive | inactive | > 10 | – | – | –
NC(N)=N/C(N)=N/Cc1ccc(Cl)cc1 | > 85 | > 85 | 2.31 | – | – | > 10 | 1.8 | 0.78 | –
CCc1nc(N)nc(N)c1-c1ccc(Cl)cc1 [PYRIMETHAMINE] | – | – | – | inactive | inactive | > 10 | – | – | –
NC(N)=N/C(N)=N/Cc1cccc(F)c1 | > 85 | > 85 | 2.96 | – | – | > 10 | 1.6 | 0.54 | –
[H]/N=C(\N/C(=N/[H])Nc1ccc(Cl)cc1)NC(C)C [PROGUANIL] | – | – | – | – | – | > 10 | > 10 | 5.4 | –
N=C(N)NC(=N)Nc1ccc(Cl)c(Cl)c1 | – | – | – | inactive | inactive | > 10 | – | – | –
N=C(N)NC(=N)NCc1ccccc1 | > 85 | > 85 | > 12.8 | – | – | > 10 | > 10 | 0.78 | –
NC(N)=N/C(N)=N/C1CCCCCC1 | – | – | – | inactive | inactive | > 10 | – | – | –
N=C(N)NC(=N)NC12CC3CC(CC(C3)C1)C2 | – | – | – | inactive | inactive | > 10 | – | – | –

Source: ChEMBL document CHEMBL3992498, “Novel biguanide-based derivatives scouted as TAAR1 agonists: Synthesis, biological evaluation, ADME prediction and molecular docking studies” (Eur J Med Chem, 2017)
